# Measured values published in patent US20220193185A1, “COMBINATION OF SYNTHETIC PEPTIDES WITH AFFINITY TO THE TGF-ß RECEPTOR AND WITH AFFINITY TO THE IL-10 RECEPTOR, PHARMACEUTICAL COMPOSITION AND THEIR USE AS IMMUNOMODULATORS IN THE TREATMENT OF AUTOIMMUNE, INFLAMMATORY OR ALLERGIC DISEASES” (Universidade Federal de Uberlândia, priority 2019, published 2022).
# Bridges are numbered along the chain shown (N, C = ends). Where no end group is shown, it is not given here.
# B1: rIL10: recombinant Interleukin-10, used as control (protein, UniProt P22301 19-178, looked up)
# Interleukin-10: SPGQGTQSENSCTHFPGNLPNMLRDLRDAFSRVKTFFQMKDQLDNLLLKESLLEDFKGYLGCQALSEMIQFYLEEVMPQAENQDPDIKAHVNSLGENLKTLRLRLRRCHRFLPCENKSKAVEQVKNAFNKLQEKGIYKAMSEFDIFINYIEAYMTMKIRN
# Key:
# [1] = test system: TFGβRII/SMAD-dependent pathway; experiment: HEK-blue-TGFβ reporter cells, SEAP production; assay type: cell-based; conditions: 12 hours; tested at 0.1, 1, 10 and 100 μM
# Description: After 12 hours of stimulation (FIG. 4A), all peptides were able to bind to the receptor.
# The assay was performed in such a way that approximately 2.5×10^4 cells/well (100 μL) were treated with 100 μL of all synthetic peptides at different concentrations (100 μM, 10 μM, 1 μM and 0.1 μM) while rTGF-β1 ([…]) at 100 ng/ml was used as a positive control. After incubating the cells for 12, 24 and 48 hours at 37° C. in 5% CO2, […] of supernatant was transferred to a Greiner plate to which […] of Quanti-blue solution was added. The plate was incubated for 1 hour at 37° C. in 5% CO2 and the production of SEAP (secreted alkaline phosphatase) was detected at 655 nm. All tests were performed in triplicate.
# [2] = test system: NFkB pathway; experiment: NFkB expression in Jurkat cells, luciferase (TGF-β1 mimetic peptides); assay type: cell-based, human; conditions: peptide pretreatment 1 hour, then TNF-α, tested at 0.1-100 μM
# Description: Two different cell treatments were performed using Jurkat cells to analyze NFkB expression after 12, 24 and 48 hours. In the first test, Jurkat cells were treated only with peptides (no pathway activating molecule) at different concentrations to analyze the ability of each peptide to induce NFkB expression (Figure not shown). None of the tested concentrations induced any type of pathway activation.
# The assay was carried out in such a way that a total of 3×10^5 cells/well ([…]) was pretreated with […] of a composition comprising one of the synthetic peptides in concentrations of 100 μM, 10 μM, 1 μM, and 0.1 μM for 1 hour at 37° C. in 5% CO2, followed by stimulation with TNF-α (200 ng/ml) for 12, 24 and 48 hours. The same stimuli were applied to cells pretreated with TNF-α (200 ng/ml) for 1 hour at 37° C. in 5% CO2 followed by stimulation with peptides at 100 μM, 10 μM, 1 μM and 0.1 μM for 12, 24 and 48 hours. Then, […] of supernatant was transferred to a white plate and Quanti-Luc reagent was used to measure the luciferase product. As a control, the peptides were tested at the same concentrations, without any pathway activating molecule, to investigate whether they could activate the NFkB pathway. TNF-α (200 ng/mL) was used as a positive control and rIL-10 (0.4 ng/mL) as a negative control. […].
# [3] = test system: TLR4 pathway; experiment: HEK-Blue hTLR4 reporter cells, SEAP production (TGF-β1 mimetic peptides); assay type: cell-based; conditions: peptide pretreatment 1 hour, then LPS 100 ng/mL; 12 hours
# Description: Similar to the treatment using Jurkat cells, peptides in compositions with different concentrations were also tested in HEK cells to investigate their ability to interfere with the TLR4 pathway.
# To ensure that the peptides could not induce any activation when tested alone (no pathway activation molecule) only the peptides were added into the cell line and SEAP production was measured after 12 hours of treatment (Figure not shown).
# The assay was performed using HEK-Blue hTLR4 reporter cells (InvivoGen) to investigate the action of peptides in the TLR4 pathway. A total of 2.3×10^4 cells/well ([…]) was pretreated with […] of composition comprising at least one of the synthetic peptides at concentrations of 100 μM, 10 μM, 1 μM, and 0.1 μM for 1 hour at 37° C. ° C. in 5% CO2 followed by LPS stimulation at 100 ng/mL for 12 hours. The same stimuli were applied to cells pretreated with LPS at 100 ng/ml for 1 hour at 37° C. in 5% CO2, followed by stimuli with peptides at 100 μM, 10 μM, 1 μM and 0.1 μM for 12 hours. Stimuli were added in Quanti-blue medium and SEAP production was measured at 655 nm. As a control, peptides at the same concentrations were tested alone to investigate whether they could activate the TLR4 pathway and LPS was used as a positive control.
# [4] = aggregation behavior in solution by Dynamic Light Scattering (DLS); assay type: physicochemical
# [5] = test system: TGF-β1 receptor on A549 cells; experiment: ELISA on cells of the A549 line using anti-TGF-β1 antibody; assay type: binding, human
# Description: The peptides described in this patent application were selected using the Phage Display (PD) methodology. The selection was performed by evaluating the ability of said peptides to recognize the TGF-β1 receptor on A549 cells, using an ELISA assay. MaxiSorp 96-well microtiter plates were coated with 1×10^6 cells diluted in PBS and incubated overnight at 4° C. Cells were blocked with 3% PBS-BSA for 1 h at 37° C., washed once with PBS and incubated with […] of each TGF-β1 mimetic peptide or 5 ng/ml of recombinant TGF-β1 for 1 h at 37° C. After washing, the plate was incubated for 1 h at 37° C. with anti-TGF-β1 antibody. The plate was washed and incubated with HRP-labeled anti-human IgG antibody for 1 h at 37° C. After washing, TMB substrate solution was added to the plate; the reaction was stopped by adding the 2N H2SO4 solution and read at 492 nm in a microplate reader.
# To investigate whether the synthesized peptides could bind to cell receptors, an ELISA assay was performed on cells of the A549 line using commercial anti-TGF-β1 antibody.
# [6] = test system: NFkB pathway; experiment: NFkB expression in Jurkat-Dual reporter cells, luciferase (IL-10 mimetic peptides); assay type: cell-based; conditions: for concentrations with statistically significant decrease of NFKB activation: peptide pretreatment 1 hour, then TNF-α 200 ng/ml
# Description: (§1) In order to investigate the ability of synthetic peptides with affinity to the Interleukin-10 receptor to interfere in the NFkB, IFN and TLR4 pathways, reporter cell lines were used. To analyze whether the isolated peptides (without activation molecules) could induce any type of activation, the isolated peptides were tested in cell lines during 12, 24 and 48 hours of treatment. […] As an example, FIG. 13A, FIG. 13B, and FIG. 13C show an analysis of NFkB expression after stimulation with the synthesized IL-10 receptor affinity synthetic peptides described herein. Cells were treated for 12, 24 and 48 hours with the synthesized peptides Pep 1-IL10, Pep 2-IL10, Pep 3-IL10 and Pep 4-IL10, at different concentrations, without activating molecules. Luciferase was then measured after 12 hours of treatment (FIG. 13A), 24 hours of treatment (FIG. 13B) and 48 hours of treatment (FIG. 13C). […] TNF-α (200 ng/mL) was used as a positive control.
# The assay was then carried out using TNF-α as activation molecule not only in the control, but after a pretreatment with the synthesized peptides Pep 1-IL10, Pep 2-IL10, Pep 3-IL10 and Pep 4-IL10, at different concentrations. All peptides were able to modulate NFKB activation after 12, 24 and 48 hours, with different results depending on the concentrations used. […] In the assays shown by FIGS. 14 A, B and C, analysis of NFkB expression was performed in Jurkat-Dual reporter cells. Cells were treated for 1 hour with peptides and TNF-α (200 ng/ml) added. Luciferase was measured after 12 hours of treatment (FIG. 14A), 24 hours of treatment (FIG. 14B) and 48 hours of treatment (FIG. 14C).
# Another assay was then performed in which cells were pretreated with TNF-α and the synthesized peptides Pep 1-IL10, Pep 2-IL10, Pep 3-IL10 and Pep 4-IL10, at different concentrations, were added later. All peptides were able to modulate NFKB activation after 12, 24 and 48 hours, with different results depending on the concentrations used. The most significant results will be described below. […] After 48 hours of treatment, Pep 1-IL-10 at a concentration of 0.001 μM (P<0.05) was the one that obtained a result with the highest statistical significance in the decrease of NFKB signaling (FIG. 15C). In the assays shown by FIGS. 15 A, B and C, analysis of NFkB expression was performed in Jurkat-Dual reporter cells. Cells were treated for 1 hour with TNF-α (200 ng/ml) and peptides were added. Luciferase was measured after 12 hours of treatment (FIG. 15A), 24 hours of treatment (FIG. 15B) and 48 hours of treatment (FIG. 15C). TNF-α (200 ng/mL) was used as a positive control and rlL-10 (recombinant Interleukin-10) (0.4 ng/mL) as a negative control. *P<0.05; **P<0.005; ***P<0.0005.
# [7] = test system: J774 cell line; experiment: cytokine production after treatment of the J774 cell line; assay type: cell-based
# Description: After 24 hours of treatment, the levels of IL-6, MCP-1 and TNF-α produced were measured.
# Decreases were significant compared to cells treated with LPS alone (positive control). *P<0.05; **P<0.005; ***P<0.0005.
# [8] = test system: rat basophilic leukemia cells transfected with the human FIϵRI IgE receptor (hRBL); experiment: IgE-mediated release in hRBL cells sensitized with serum from patients allergic to birch pollen, Bet v 1; assay type: cell-based; conditions: Pep 1-IL-10 at 1 μM; serum from seven birch pollen allergic donors
# Description: The effect of IL-10 mimetic peptides on IgE-mediated release was examined using rat basophilic leukemia cells transfected with the human FIϵRI IgE receptor (hRBL). As an example, we selected as an example Pep 1-IL-10 to show the data obtained. The hRBL cells were sensitized with serum from seven patients allergic to birch pollen. Cells were stimulated with the antigen and its interaction with immobilized IgEs caused a release of b-hexosaminidase.
# When cells were treated with a composition comprising Pep 1-IL-10 at 1 μM (FIG. 21A) or rIL10 (FIG. 21B), the amount of Bet v 1 needed to induce the same amount of degranulation was higher when compared to cells treated only with Bet vl (P<0.05). Amount of rBet v 1 (ng/mL) required to induce half the release of b-hexosaminidase using serum from seven birch pollen allergic donors after treatment with Pep 1-IL-10 (A) (P<0.05) and rIL10 (B)*P<0.05.
# [9] = test system: IFN signaling pathway; experiment: IFN signaling pathway in Jurkat-Dual reporter cells, SEAP production; assay type: cell-based; conditions: after 12, 24 and 48 hours; results depend on concentration
# Description: as §1
# The most significant results will be described below. […] When cells were pretreated with IFN, although peptides at some concentrations indicated results, they were not statistically sufficient. Therefore, we cannot confirm whether they were able to interfere with pathway activation (FIGS. 17 A, B and C) in an equal or better way than the negative control (rIL-10). In the assays shown by FIGS. 16 (A, B and C) and FIGS. 17 (A, B and C), analysis of IFN expression was performed in Jurkat-Dual reporter cells. In the assays shown by FIGS. 16 A, B and C, cells were treated for 1 hour with peptides with further addition of IFN-α (104 EU/ml). Secreted Embryonic Alkaline Phosphatase (SEAP) production was measured after 12 hours of treatment (FIG. 16A), 24 hours of treatment (FIG. 16 B) and 48 hours of treatment (FIG. 16 C). In the assays shown by FIGS. 17A, B and C, cells were treated for 1 hour with IFN-α (104 EU/ml) with further addition of the peptides. SEAP production was measured after (A) 12 hours of treatment (B), 24 hours of treatment and (C) 48 hours of treatment. IFN-α (104 EU/ml) was used as a positive control and rlL-10 (0.4 ng/ml) as a negative control. *P<0.05.
# [10] = peptide followed by LPS, 24 hours
Molecule,concentrations with statistically significant activation of the SMAD-dependent pathway (SEAP) [1],concentrations with statistically significant decrease of NFKB pathway activation vs TNF-α control ([2]; 24 hours),concentrations with statistically significant decrease of NFKB pathway activation vs TNF-α control ([2]; 48 hours) [µM],concentrations with statistically significant reduction of TLR4 pathway activation [3],hydrodynamic radius ([4]; TGF-β1 mimetic peptides in solution) [nm],recognition of receptor-bound peptide by anti-TGF-β1 antibody compared to recombinant TGF-β1 [5],"concentration with highest statistical significance in the decrease of NFKB signaling ([6]; cells pretreated 1 hour with TNF-α 200 ng/ml, peptides added, 48 hours) [µM]",concentrations with statistically significant decrease of NFKB activation ([6]; 12 hours),concentrations with statistically significant decrease of NFKB activation ([6]; 24 hours),concentrations with statistically significant decrease of NFKB activation ([6]; 48 hours),"induction of NFkB expression by peptides alone ([6]; without activating molecules, 12, 24 and 48 hours, different concentrations)","production of IL-10, IFN-g or IL12p70 ([7]; 24 hours of treatment)","production of IL-6, MCP-1 and TNF-α ([7]; peptide followed by LPS for 24 hours)","concentrations that significantly reduced IL-6 levels vs LPS alone [7, 10]","concentrations that significantly reduced MCP-1 levels vs LPS alone [7, 10]","concentrations that significantly reduced TNF-α levels vs LPS alone [7, 10]","cytokine response to peptide alone ([7]; without LPS stimulation, 24 hours)",amount of Bet v 1 needed to induce the same amount of degranulation (half the release of b-hexosaminidase) vs Bet v 1 only [8],measured hydrodynamic radius ([4]; IL-10 mimetic peptides in solution) [nm],modulation of the activation of the IFN signaling pathway [9]
"Pep 7-TGF-β1: synthetic peptide with affinity to the TGF-β receptor, SEQ ID N 07, free of disulfide bridges (HASTIASTLHSGGGS)",0.1 μM: 1 μM; 10 μM and 100 μM,1 µM and 100 µM,1,0.1 μM; 1 μM and 10 μM,2.94,recognized as statistically different,,,,,,,,,,,,,,
"Pep 1-IL-10: synthetic peptide with affinity to the Interleukin-10 receptor, SEQ ID 09, with disulfide bridges (HACSAVIKSSCGGGS; disulfide 3-11 (inferred))",,,,,,,0.001,all concentrations tested,all concentrations tested,all concentrations tested,not able to induce any response,No interference,able to decrease,"1 μM, 10 μM and 100 μM",1 µM and 10 µM,"1 μM, 10 μM and 100 μM",unable to induce any response,higher,0.82,able to modulate the activation of the IFN signaling pathway
B1,,,,,,,,,,,,,,,,,,higher,,
